# Measured values taken from patent US20250019350A1, “SYNTHESIS OF THE PROSTATE SPECIFIC MEMBRANE ANTIGEN (PSMA) RADIOLABELED INHIBITOR [18F]DCFPYL” (Progenics Pharmaceuticals, Inc, priority 2023, published 2025).
# Key:
# [1] = @ 10 hr; ascorbic acid at 10 mg/mL (Fawdry 2007); cited from earlier work
# [2] = Retention/recovery of [19F]DCFPyL on the HLB solvent exchange cartridge as a function of pH (load, wash, product samples); type: physicochemical
# Protocol: The goal of this study was to characterize the impact of pH on the retention of [^18F]DCFPyL on the HLB solvent exchange cartridge. […] The pH of one solution was adjusted to 2 and a second to 4 by adding 1N HCl. A third solution was used without adjusting its native pH of 7.2. Using a BD syringe, 10 mL of each solution was spiked with [^19F]DCFPyL (50 μg) by adding 0.5 mL of a 100 μg/mL stock solution. Each spiked solution was loaded onto a HLB cartridge at a rate of approximately 2 mL/min. […] The eluent from each HLB cartridge was individually collected and identified as the “wash solution.” Each HLB cartridge was then individually eluted with 1 mL of ethanol, the samples collected and are identified as the “product sample.” The load solution and wash solution samples were analyzed using a drug product chemical impurity assay after a 1 to 10 mL dilution with saline, while the ethanolic product samples were analyzed following a 0.5 to 10 dilution with saline.
# The goal of this study was to characterize the impact of pH on the retention of ^18F-DCFPyL on the HLB solvent exchange cartridge. […] The pH of one solution was adjusted to 2 and a second to 4 by adding 1N HCl. A third solution was used without adjusting its native pH of 7.2. At this pH the solution will be mainly sodium ascorbate. Using a BD syringe, 10 mL of each solution was spiked with ^19F-DCFPyL (50 μg) by adding 0.5 mL of a 100 μg/mL stock solution. Each spiked solution was loaded onto an HLB cartridge at a rate of approximately 2 mL/min and the solution collected after the HLB column is identified as the load solution. […] Each HLB cartridge was then individually eluted with 1 mL of ethanol, the solution collected after the HLB column is identified as the product sample. The load solution and wash solution samples were analyzed using the drug product chemical impurity assay after a 1 to 10 mL dilution with saline, while the ethanolic product samples were analyzed following a 0.5 to 10 mL dilution with saline.
# [3] = HPLC/UV (264 nm) chemical impurity assay; ascorbic acid related impurity; type: physicochemical; settings: 5 mg/mL, pH 6 ascorbic acid solution with free 18F (129 mCi/mL)
# Protocol: Analytical HPLC method was used. The method employs UV detection at 264 nm for chemical impurities, and an Eckert & Ziegler model B-FC-1000 gamma detector for radiochemical assays.
# Since the peak has not been previously observed in preparations in the absence of ascorbic acid it is likely ascorbic acid related and was further investigated. A decayed sample from the lot produced was analyzed further and confirmed the presence of the peak, FIG. 35. […] The sample was assayed for chemical impurities at T=0, 4, 10 and 24 hours when held inverted at ambient conditions. […] The impurity only formed with radioactivity exposure but not when stored in light or dark at ambient conditions (see FIG. 37).
# [4] = cited from earlier work
# [5] = HLB pH 2 Product, first Ethanol elution
# [6] = HLB pH 2 Product, second Ethanol elution
# [7] = HLB pH 2 Product, third Ethanol elution
smiles,measurement,setting,value
OC[C@H]1O[C@@H](O)[C@H]([18F])[C@@H](O)[C@@H]1O [FDG],de-fluorination,[1],less than 2%
O=C(O)CC[C@H](NC(=O)N[C@@H](CCCCNC(=O)c1ccc(F)nc1)C(=O)O)C(=O)O [Lot 19F-DCFPyL],retention by the HLB cartridge,"[2]; 10 mg/mL ascorbic acid, pH 7.2",not meaningfully retained
same,19F-DCFPyL recovered (%),[2]; HLB Saline pH 7 Rinse,0.0%
same,μg of 19F-DCFPyL recovered,[2]; HLB Saline pH 7 Rinse,Not Detected
same,19F-DCFPyL recovered (%),[2]; HLB pH 2 Load,0.0%
same,μg of 19F-DCFPyL recovered,[2]; HLB pH 2 Load,Not Detected
same,19F-DCFPyL recovered (%),[2]; [5],69.5%
same,μg of 19F-DCFPyL recovered,[2]; [5],35.423 µg
same,19F-DCFPyL recovered (%),[2]; [6],21.5%
same,μg of 19F-DCFPyL recovered,[2]; [6],10.946 µg
same,19F-DCFPyL recovered (%),[2]; [7],7.1%
same,μg of 19F-DCFPyL recovered,[2]; [7],3.629 µg
same,19F-DCFPyL recovered (%),[2]; HLB pH 2 Rinse,0.0%
same,μg of 19F-DCFPyL recovered,[2]; HLB pH 2 Rinse,Not Detected
same,19F-DCFPyL recovered (%),[2]; HLB pH 4 Load,22.0%
same,μg of 19F-DCFPyL recovered,[2]; HLB pH 4 Load,10.504 µg
same,19F-DCFPyL recovered (%),[2]; HLB pH 4 Product,57.7%
same,μg of 19F-DCFPyL recovered,[2]; HLB pH 4 Product,27.989 µg
same,19F-DCFPyL recovered (%),[2]; HLB pH 4 Rinse,0.0%
same,μg of 19F-DCFPyL recovered,[2]; HLB pH 4 Rinse,Not Detected
same,19F-DCFPyL recovered (%),[2]; HLB pH 7 Load,87.4%
same,μg of 19F-DCFPyL recovered,[2]; HLB pH 7 Load,38.239 µg
same,19F-DCFPyL recovered (%),[2]; HLB pH 7 Product,0.0%
same,μg of 19F-DCFPyL recovered,[2]; HLB pH 7 Product,Not Detected
same,19F-DCFPyL in the load or wash samples,[2]; pH 2,not detected
same,μg of 19F-DCFPyL recovered,[2]; pH 2 Control,50.976 µg
same,"19F-DCFPyL in the product sample, % of the total amount recovered from all samples",[2]; pH 4,approximately 68%
same,19F-DCFPyL recovered in the load sample,[2]; pH 4,approximately 31%
same,19F-DCFPyL recovered in the load sample (mass),[2]; pH 4,< 1 µg
same,μg of 19F-DCFPyL recovered,[2]; pH 4 Control,47.665 µg
same,μg of 19F-DCFPyL recovered,[2]; pH 7 Control,43.759 µg
same,19F-DCFPyL recovered in the wash samples,[2]; pH 7.2,3.8 µg/mL
O=C1O[C@H]([C@@H](O)CO)C(O)=C1O [ascorbic acid],4.6 min RT peak (HPLC UV),"[3]; T = 0 hours, ambient",not present
same,"4.6 min RT peak (HPLC UV), approximate concentration","[3]; T = 24 hours, relative response factor of 1 to [19F]-DCFPyL standard",~1.75 µg/mL
same,pKa,[4],about 4.2
